{"source": "patent US20060128654A1", "about": "“Pharmaceutical formulation of cytidine analogs and derivatives” (priority 2004, published 2006)", "test": "Chemical stability of decitabine in cyclodextrin solutions (HPLC potency, % of total peak areas at 220 nm)", "type": "physicochemical", "procedure": "The chemical stability of decitabine in the cyclodextrin solutions and in the phophate buffer as prepared above was determined. The initial decitabine concentration for all the solutions was 17-18 mg/mL at the beginning of the experiment at 2-8° C.; 9-10 mg/mL at the beginning of the experiment at 25° C. Decitabine potency was assayed by a HPLC method, and expressed as a percentage of total peak areas at 220 nm.", "data": [{"smiles": "Nc1ncn([C@H]2C[C@H](O)[C@@H](CO)O2)c(=O)n1", "note": "[decitabine, 5-aza-2′-deoxycytidine]", "values": [{"measurement": "Stability in aqueous solution with cyclodextrins as excipients", "setting": "2-8° C., initial 17-18 mg/mL, FIG. 1", "result": "dramatically improve the stability"}, {"measurement": "Stabilization effect at various HPBCD concentrations", "setting": "25° C., FIG. 3", "result": "concentration dependent"}, {"measurement": "Stability in aqueous solution with cyclodextrins as excipients", "setting": "25° C., initial 9-10 mg/mL, FIG. 2", "result": "dramatically improve the stability"}]}]}
